Laboratory results as given in US20070004758A1, “COMPOSITIONS AND TREATMENTS FOR INHIBITING KINASE AND/OR HMG-COA REDUCTASE” (priority 2004, published 2007).
Structures can show the parent of a compound that is named as a salt.

Assays:
[1] = system: oxazolone-induced mouse ear swelling; test: Model for inhibition of topical inflammation (oxazolone-induced mouse ear swelling); format: in vivo, BALB/c male mice; conditions: topical to right ear, ear thickness 24 hours after challenge
Description: Left ears were untreated. The thickness of both ears of each animal was measured with a Dyer model micrometer gauge 24 hours after oxazolone challenge, and the net increase in thickness of right ears versus left ears was calculated for each animal. Percent inhibition was calculated according to the formula: [(Iv−It)/Iv]×100, where Iv and It respectively refer to the average net increase in right ear thickness (mm) for vehicle and candidate compound treated mice.

[2] = system: LPS-induced TNF-α release from human peripheral blood mononuclear cells; test: Whole cell LPS-stimulated TNF-α release assay; format: cell-based; conditions: Table III; inhibition of LPS-induced TNF-α release from human PBMC by 50%
Description: The procedure as described in Welker et al., Int. Arch. Allergy and Immunol. 109:110-115 (1996) can be followed. Briefly, a candidate compound and/or vehicle can be preincubated with human peripheral blood mononuclear leukocytes (PBML, 5×10^5/ml) cells in AIM-V medium pH 7.4 for 2 hours. Lipopolysaccharide (LPS, 25 ng/ml) can be added to stimulate the cells, which can be incubated overnight at 37° C. TNF-α cytokine levels in the conditioned medium can then be quantitated using a sandwich ELISA kit.

Row | SMILES | % Inh. of oxazolone-induced mouse ear swelling ([1]; dose 2 × 0.3 mg) [%] | % Inh. of oxazolone-induced mouse ear swelling ([1]; dose 2 × 1 mg) [%] | % Inh. of oxazolone-induced mouse ear swelling ([1]; dose 2 × 2 mg) [%] | IC50 [2] [µM]
1 | CC(C)c1c(C(=O)Nc2ccccc2)c(-c2ccccc2)c(-c2ccc(F)cc2)n1CC[C@@H](O)C[C@@H](O)CC(=O)O [Atorvastatin sodium] | 9 | 31 | 63 | –
2 | O=C(O)C[C@H](O)C[C@H](O)/C=C/c1c(-c2ccccc2)nn(-c2ccnc(Nc3ccccc3)n2)c1-c1ccccc1 [Example 11a, (3R,5S,E)-7-(3,5-diphenyl-1-(2-(phenylamino)pyrimidin-4-yl)-1H-pyrazol-4-yl)-3,5-dihydroxyhept-6-enoic Acid Calcium Salt] | – | – | – | 31
3 | O=C(O)C[C@H](O)C[C@H](O)/C=C/c1cnn(-c2ccnc(Nc3ccccc3)n2)c1-c1cccc(C(F)(F)F)c1 [Example 11g, (3R,5S,E)-3,5-dihydroxy-7-(1-(2-(phenylamino)pyrimidin-4-yl)-5-(3-(trifluoromethyl)phenyl)-1H-pyrazol-4-yl)hept-6-enoic acid calcium salt] | – | – | – | 52
4 | CC(C)n1c(/C=C/C(O)CC(O)CC(=O)O)c(-c2ccc(F)cc2)c2ccccc21 (stereo not drawn) [Fluvastatin sodium] | 28 | – | – | –
5 | O=C([O-])C[C@H](O)C[C@H](O)/C=C/c1c(C2CC2)nc2ccccc2c1-c1ccc(F)cc1.O=C([O-])C[C@H](O)C[C@H](O)/C=C/c1c(C2CC2)nc2ccccc2c1-c1ccc(F)cc1.[Ca+2] [Pitavastatin calcium] | 9 | – | 60 | –
6 | CC(C)c1nc(N(C)S(C)(=O)=O)nc(-c2ccc(F)cc2)c1/C=C/[C@@H](O)C[C@@H](O)CC(=O)O [Rosuvastatin sodium] | 20 | – | – | –
